This is an account of results in patent US11945796B2, “Substituted pyridine derivatives as SARM1 inhibitors” (Nura Bio, Inc., priority 2020, dated 2024).

Read-outs that look alike come from different tables or passages of the source.

The target of the assay is T1, human SARM1(50-724) (Homo sapiens, UniProt Q6SZW1).
T1 construct: 40 nM human SARM1(50-724)
T1 sequence (Q6SZW1 50-724): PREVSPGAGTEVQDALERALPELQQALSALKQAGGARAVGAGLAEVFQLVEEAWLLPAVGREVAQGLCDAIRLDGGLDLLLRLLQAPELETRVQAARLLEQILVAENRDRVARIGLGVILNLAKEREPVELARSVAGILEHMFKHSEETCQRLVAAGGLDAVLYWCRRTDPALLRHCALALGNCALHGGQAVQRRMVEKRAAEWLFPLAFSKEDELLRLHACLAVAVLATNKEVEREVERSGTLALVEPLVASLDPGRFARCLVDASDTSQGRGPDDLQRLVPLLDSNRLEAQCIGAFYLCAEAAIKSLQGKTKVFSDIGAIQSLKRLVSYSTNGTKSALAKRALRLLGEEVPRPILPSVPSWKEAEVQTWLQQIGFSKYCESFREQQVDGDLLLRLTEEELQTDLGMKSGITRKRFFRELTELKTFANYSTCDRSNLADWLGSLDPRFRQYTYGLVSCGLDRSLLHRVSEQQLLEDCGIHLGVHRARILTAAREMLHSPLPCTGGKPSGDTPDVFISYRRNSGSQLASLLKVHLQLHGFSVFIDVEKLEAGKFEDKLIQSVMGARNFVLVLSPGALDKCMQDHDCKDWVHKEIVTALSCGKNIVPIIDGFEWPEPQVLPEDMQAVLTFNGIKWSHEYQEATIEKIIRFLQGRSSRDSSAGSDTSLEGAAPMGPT
In words: SARM1 NADase biochemical assay (HPLC peak areas of NAD and NAM). Conditions: for IC50: dose-response, 1:3 serial dilution from 100 μM, 40 nM SARM1, 0.3 mM NMN, 20 μM NAD, 60 min rt. The protocol:
The reaction was incubated at room temperature for 60 minutes and quenched with 20 μL of 0.4% formic acid. […] Total run time for each sample was 4 minutes. […] Samples were run at a flow rate of 0.8 mL/min at 55° C. Peak areas of NAD and NAM were determined using OpenLAB CDS (Chem Station edition) software. For dose-response, the compound was diluted serially 1:3 in DMSO and added to the reaction starting at a final compound concentration of 100 μM in 1% DMSO.

Where [1] appears, read: read-out: Avg NAD % inhibition at 50 μM.
The mark [2] stands for this setting: read-out: Avg NAM % inhibition at 50 μM.
The mark [3] stands for this setting: 50 μM compound, NAD peak area, read-out: Avg NAD % inhibition at 50 μM.
Setting [4] is: 50 μM compound, NAM peak area, read-out: Avg NAM % inhibition at 50 μM.

By inhibition is commonly meant the percentage by which the read-out fell short of the control. For `COc1ccc(C(=O)Nc2ccn(Cc3ccncc3)n2)cc1OC` [Example 41, 3,4-Dimethoxy-N-(1-(pyridin-4-ylmethyl)-1H-pyrazol-3-yl)benzamide], the inhibition at 50 µM fell in the range of 0 to 50% under setting [1] and 0 to 50% under setting [2].

Turning to `CCNc1ccn(Cc2ccncc2)n1` [Example 85, N-Ethyl-1-(pyridin-4-ylmethyl)-1H-pyrazol-3-amine], the inhibition at 50 µM under setting [1] is 0 to 50% and the inhibition at 50 µM under setting [2] lay in the range of 0 to 50%.

Usually IC50 stands for the concentration that gives 50% inhibition. The molecule `O=C(Nc1ccn(Cc2ccncc2)n1)C(C(F)(F)F)C(F)(F)F` [Example 15, 3,3,3-trifluoro-N-(1-(pyridin-4-ylmethyl)-1H-pyrazol-3-yl)-2-(trifluoromethyl)propanamide] yielded an IC50 of 1 to 10 µM.

Regarding `CCCNc1ccn(Cc2ccncc2)n1` [Example 94, N-Propyl-1-(pyridin-4-ylmethyl)-1H-pyrazol-3-amine], the inhibition at 50 µM reads like this: under setting [3], 0 to 50%; under setting [4], 0 to 50%.

With `CC(c1ccncc1)c1ccn(CC#N)n1` (single isomer, unassigned) [Example 12a], the IC50 was in the range of 1 to 10 µM.

Molecule `O=S(=O)(Nc1ccn(Cc2ccncc2)n1)c1cccc(F)c1` [Example 76, 3-Fluoro-N-(1-(pyridin-4-ylmethyl)-1H-pyrazol-3-yl)benzenesulfonamide] came in with an IC50 of 1 to 10 µM. The inhibition at 50 µM under setting [3] fell in the range of 0 to 50%. In addition, under setting [4], the inhibition at 50 µM lay within 0 to 50%.

On to `O=C(Nc1ccn(Cc2ccncc2)n1)c1ccc(C(F)(F)F)cc1` [Example 57, N-(1-(Pyridin-4-ylmethyl)-1H-pyrazol-3-yl)-4-(trifluoromethyl)benzamide], for which the inhibition at 50 µM lay in the range of 0 to 50% under setting [3] and 0 to 50% under setting [4].

Consider `COc1cccc(C(=O)Nc2ccn(Cc3ccncc3)n2)c1` [Example 43, 3-Methoxy-N-(1-(pyridin-4-ylmethyl)-1H-pyrazol-3-yl)benzamide], for which the inhibition at 50 µM is 0 to 50% under setting [3] and 0 to 50% under setting [4].

As for `O=C(Nc1ccn(Cc2ccncc2)n1)c1ccc2c(c1)OCC2` [Example 38, N-(1-(Pyridin-4-ylmethyl)-1H-pyrazol-3-yl)-2,3-dihydrobenzofuran-6-carboxamide], the IC50 is 1 to 10 µM.

With `FC(F)(F)C(F)(F)c1ccn(Cc2ccncc2)n1` [Example 103, 4-{[3-(1,1,2,2,2-Pentafluoroethyl)-1H-pyrazol-1-yl]methyl}pyridine], the IC50 was 1 to 10 µM.

`COc1ccc(C(=O)Nc2ccn(Cc3ccncc3)n2)s1` [Example 64, 5-Methoxy-N-(1-(pyridin-4-ylmethyl)-1H-pyrazol-3-yl)thiophene-2-carboxamide]: the inhibition at 50 µM reads like this: under setting [3], 0 to 50%; under setting [4], 0 to 50%.

With `CN(CC(F)(F)F)c1ccn(Cc2ccncc2)n1` [Example 90, N-Methyl-1-(pyridin-4-ylmethyl)-N-(2,2,2-trifluoroethyl)-1H-pyrazol-3-amine], the IC50 was 10 to 100 µM.

Molecule `O=C(Nc1ccn(Cc2ccncc2)n1)C1COc2ccccc2C1` (centres unmarked) [Example 63, N-(1-(Pyridin-4-ylmethyl)-1H-pyrazol-3-yl)chromane-3-carboxamide] gave an IC50 of 1 to 10 µM.

Take “(S)-4-(1-(1-(2,2,2-Trifluoroethyl)-1H-pyrazol-3-yl)ethyl)pyridine and (R)-4-(1-(1-(2,2,2-Trifluoroethyl)-1H-pyrazol-3-yl)ethyl)pyridine [Example 13b]”: the “Avg NAD % inhibition at 50 μM” value (50 μM compound, NAD peak area) is recorded as “** (51-100%)”. Moreover, under “50 μM compound, NAM peak area”, the “Avg NAM % inhibition at 50 μM” value was “** (51-100%)”.

`O=C(Nc1ccn(Cc2ccncc2)n1)C(F)(F)F` [Example 68, 2,2,2-Trifluoro-N-(1-(pyridin-4-ylmethyl)-1H-pyrazol-3-yl)acetamide] yielded an IC50 of 10 to 100 µM.

In the case of `O=C(CCc1cc(Cl)cc(Cl)c1)Nc1ccn(Cc2ccncc2)n1` [Example 35, 3-(3,5-Dichlorophenyl)-N-(1-(pyridin-4-ylmethyl)-1H-pyrazol-3-yl)propanamide], the inhibition at 50 µM under setting [3] fell in the range of 0 to 50% and the inhibition at 50 µM under setting [4] lay within 0 to 50%.
